The numbers were not newly measured in patent US20130150444A1, “MODIFIED RELEASE COMPOSITIONS OF MAGNESIUM VALPROATE” (CADILA HEALTHCARE LIMITED, priority 2011, published 2013), which cites them from elsewhere.

For the series the following is noted: in comparison with sodium valproate or valproic acid.

For the substance “magnesium 2-propylvalerate [magnesium valproate]”, the absorption rate entry was “slower and more regular”.
